Measurements published in patent EP4707280A1, “1,4-CINEOLE DERIVATIVE AND INTERMEDIATE THEREOF, HERBICIDE CONTAINING SAID DERIVATIVE AS ACTIVE INGREDIENT, METHOD FOR USING HERBICIDE, AND METHOD FOR PREPARING AGROCHEMICAL COMPOSITION” (HOKKO CHEMICAL INDUSTRY CO., LTD., priority 2023, dated 2024).

Assays:
Type in all cases: in vivo
Echinochloa crus-galli [1] = test: Test Example 8: herbicidal effect test by stem and leaf treatment in upland field (low dose); details: Echinochloa crus-galli; 7.5 g per 10 ares; sprayed seven days after sowing, upland soil; 14 days after application; read-out: weed inhibition rate
Method: (§1) The present test was conducted in duplicate for each chemical concentration group, and the weed inhibition rate (%) was determined 14 days after chemical application using the following formula (Math. 1). [formula]
(§2) Pots with an area of 36 cm^2 were filled with upland soil (alluvial loam), twenty seeds each of weeds of Digitaria ciliaris, and Echinochloa crus-galli were uniformly mixed with the top 1 cm layer of soil and the surface was lightly pressed down. Seven days after sowing, an emulsifiable concentrate prepared according to Formulation Example 5 using the compound shown below was diluted with water, and the diluted solution was sprayed onto the soil surface at a rate of 100 liters per 10 ares. The amount of the active ingredient to be applied was equivalent to 7.5 g per 10 ares. Fourteen days after chemical application, the herbicidal effect was evaluated according to the same criteria as in Test Example 1.

[2] = tested on: Echinochloa crus-galli var. formosensis; test: Test Example 2: herbicidal effect test by application during growth period of paddy rice; details: 120 g per 10 ares, applied seven days after sowing, flooded pots, 14 days after application; for inhibition at 1200 g/ha: Echinochloa crus-galli, read-out: weed inhibition rate
Outline: (§3)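 Greenhouse pots of flooded paddy soil, seeded shallowly with 30 seeds per weed, are treated on day 7 by dropper with diluted emulsifiable concentrate equal to 120 g a.i./10 a. Duplicate pots are scored for inhibition rate 14 days post-application.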

Echinochloa crus-galli [3] = test: Test Example 3: herbicidal effect test by soil application in upland field; details: 120 g per 10 ares, sprayed one day after sowing, 14 days after application; for inhibition at 1200 g/ha: Echinochloa crus-galli, read-out: weed inhibition rate
Outline: (§4)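 Pre-emergence test: seeds mixed into top 1 cm of alluvial loam upland soil in pots; emulsifiable concentrate diluted in water sprayed on soil one day after sowing at 100 L/10 a, 120 g a.i./10 a. Weed inhibition rate (%) scored at 14 days, in duplicate.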

Digitaria ciliaris [4] = test: as above; details: 120 g per 10 ares, sprayed one day after sowing, 14 days after application; for inhibition at 1200 g/ha: Digitaria ciliaris, read-out: weed inhibition rate
Outline: as §4

[5] = tested on: Echinochloa crus-galli var. formosensis; test: Test Example 5: herbicidal effect test by soil application in paddy rice (low dose); details: Echinochloa crus-galli, soil, 336 h; 7.5 g per 10 ares; applied immediately after sowing, flooded pots; 14 days after application; read-out: weed inhibition rate
Method: as §1
Wagner pots with an area of […] were filled with paddy soil, followed by addition of water and incorporation of chemical fertilizer (N:P:K = 16:16:16), after which puddling was performed. After that, seeds of Echinochloa crus-galli var. formosensis, broad-leaved weeds (Monochoria vaginalis), and Scirpus juncoides were sown at a depth of 0 cm to 1 cm, 30 seeds each. Immediately after sowing, the pots were flooded and a water depth of approximately 3 cm was maintained. Subsequent management was conducted in a glass greenhouse. Immediately thereafter, an emulsifiable concentrate prepared according to Formulation Example 5 using the compound shown below was diluted with water, and a specified amount of the diluted solution was applied by dropper. The amount of the active ingredient to be applied was equivalent to 7.5 g per 10 ares. […]

Digitaria ciliaris [6] = test: Test Example 4: herbicidal effect test by stem and leaf treatment in upland field; details: 120 g per 10 ares, sprayed seven days after sowing, upland soil, 14 days after application; for inhibition at 1200 g/ha: Digitaria ciliaris, read-out: weed inhibition rate
[7] = tested on: Echinochloa crus-galli var. formosensis; test: Test Example 1: herbicidal effect test by soil application in paddy rice; details: 120 g active ingredient per 10 ares, applied immediately after sowing, flooded pots, 14 days after application; for pest or weed control at 1200 g/ha: Echinochloa crus-galli, soil, 336 h, read-out: weed inhibition rate
Outline: (§5)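 Paddy soil in Wagner pots (1/10,000 acre) was fertilized (N:P:K 16:16:16) and puddled, then weed seeds were sown 0–1 cm deep, 30 each. Pots were flooded to ~3 cm and kept in a glass greenhouse. Emulsifiable concentrate diluted in water was dropped on immediately after sowing at 120 g a.i. per 10 ares.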

Echinochloa crus-galli [8] = test: Test Example 4: herbicidal effect test by stem and leaf treatment in upland field; details: 120 g per 10 ares, sprayed seven days after sowing, upland soil, 14 days after application; for inhibition at 1200 g/ha: Echinochloa crus-galli, read-out: weed inhibition rate
Scirpus juncoides [9] = test: Test Example 2: herbicidal effect test by application during growth period of paddy rice; details: Schoenoplectiella juncoides; 120 g per 10 ares; applied seven days after sowing, flooded pots; 14 days after application; read-out: weed inhibition rate
Outline: as §3

[10] = tested on: Echinochloa crus-galli var. formosensis; test: Test Example 6: herbicidal effect test by application during growth period of paddy rice (low dose); details: Echinochloa crus-galli; 7.5 g per 10 ares; applied seven days after sowing, flooded pots; 14 days after application; read-out: weed inhibition rate
Method: as §1
Wagner pots with an area of […] were filled with paddy soil, followed by addition of water and incorporation of chemical fertilizer (N:P:K = 16:16:16), after which puddling was performed. After that, seeds of Echinochloa crus-galli var. formosensis, broad-leaved weeds (Monochoria vaginalis), and Scirpus juncoides were sown at a depth of 0 cm to 1 cm, 30 seeds each. Immediately after sowing, the pots were flooded and a water depth of approximately 3 cm was maintained. Subsequent management was conducted in a glass greenhouse. Seven days after sowing, an emulsifiable concentrate prepared according to Formulation Example 5 using the compound shown below was diluted with water, and a specified amount of the diluted solution was applied by dropper. The amount of the active ingredient to be applied was equivalent to 7.5 g per 10 ares. The test was conducted in duplicate for each chemical concentration group, and the herbicidal effect was evaluated 14 days after chemical application using the same criteria as in Test Example 1.

Scirpus juncoides [11] = test: Test Example 1: herbicidal effect test by soil application in paddy rice; details: Schoenoplectiella juncoides, soil, 336 h; 120 g active ingredient per 10 ares; applied immediately after sowing, flooded pots; 14 days after application; read-out: weed inhibition rate
Outline: as §5

Digitaria ciliaris [12] = test: Test Example 8: herbicidal effect test by stem and leaf treatment in upland field (low dose); details: 7.5 g per 10 ares, sprayed seven days after sowing, upland soil, 14 days after application; for inhibition at 75 g/ha: Digitaria ciliaris, read-out: weed inhibition rate
Method: as §1, §2

Cc1cccc(C)c1CO[C@@H]1C[C@]2(C(C)C)O[C@@]1(C)C[C@@H]2Br [1-17, (1S,2R,4R,5S)-5-bromo-2-[(2,6-dimethylphenyl)methoxy]-1-methyl-4-isopropyl-7-oxabicyclo[2.2.1]heptane]
≥ 80%: inhibition at 75 g/ha (Echinochloa crus-galli [1]) | inhibition at 1200 g/ha [2] | inhibition at 1200 g/ha (Echinochloa crus-galli [3]) | inhibition at 1200 g/ha (Digitaria ciliaris [4]) | inhibition at 75 g/ha [5] | inhibition at 1200 g/ha (Digitaria ciliaris [6]) | pest or weed control at 1200 g/ha [7] | inhibition at 1200 g/ha (Echinochloa crus-galli [8])

CC#CCO[C@@H]1C[C@]2(C(C)C)O[C@@]1(C)C[C@@H]2Br [1-674, (1S,2R,4R,5S)-5-bromo-2-but-2-ynoxy-1-methyl-4-isopropyl-7-oxabicyclo[2.2.1]heptane]
≥ 80%: inhibition at 1200 g/ha [2] | inhibition at 1200 g/ha (Scirpus juncoides [9]) | inhibition at 1200 g/ha (Echinochloa crus-galli [3]) | inhibition at 1200 g/ha (Digitaria ciliaris [4]) | inhibition at 75 g/ha [5] | inhibition at 1200 g/ha (Digitaria ciliaris [6]) | inhibition at 75 g/ha [10] | pest or weed control at 1200 g/ha [7] | pest or weed control at 1200 g/ha (Scirpus juncoides [11]) | inhibition at 1200 g/ha (Echinochloa crus-galli [8])

COc1ccc(CO[C@@H]2C[C@]3(C(C)C)O[C@@]2(C)C[C@@H]3Br)cc1 [1-686, (1S,2R,4R,5S)-5-bromo-2-[(4-methoxyphenyl)methoxy]-1-methyl-4-isopropyl-7-oxabicyclo[2.2.1]heptane]
≥ 80%: inhibition at 75 g/ha (Echinochloa crus-galli [1]) | inhibition at 75 g/ha (Digitaria ciliaris [12]) | inhibition at 1200 g/ha (Digitaria ciliaris [6]) | inhibition at 1200 g/ha (Echinochloa crus-galli [8])

CC(C)[C@]12C[C@@H](OCc3ccccc3C(F)(F)F)[C@](C)(C[C@@H]1Br)O2 [1-700, (1S,2R,4R,5S)-5-bromo-l-methyl-4-isopropyl-2-[[2-(trifluoromethyl)phenyl]methoxy]-7-oxabicyclo[2.2.1]heptane]
≥ 80%: weed inhibition rate (Digitaria ciliaris [12]) | weed inhibition rate [2] | weed inhibition rate (Echinochloa crus-galli [3]) | weed inhibition rate (Digitaria ciliaris [4]) | weed inhibition rate (Digitaria ciliaris [6]) | weed inhibition rate [7] | weed inhibition rate (Echinochloa crus-galli [8])

CC(C)[C@]12C[C@@H](OCc3ccccc3C(=O)O)[C@](C)(C[C@@H]1Br)O2 [1-706, 2-[[(1S,2R,4R,5S)-5-bromo-1-methyl-4-isopropyl-7-oxabicyclo[2.2.1]heptan-2-yl]oxymethyl]benzoic acid]
≥ 80%: inhibition at 75 g/ha (Echinochloa crus-galli [1]) | inhibition at 75 g/ha (Digitaria ciliaris [12]) | inhibition at 1200 g/ha (Digitaria ciliaris [6]) | inhibition at 1200 g/ha (Echinochloa crus-galli [8])

COC(=O)c1ccccc1CO[C@@H]1C[C@]2(C(C)C)O[C@@]1(C)C[C@@H]2Br [1-709, methyl 2-[[(1S,2R,4R,5S)-5-bromo-1-methyl-4-isopropyl-7-oxabicyclo[2.2.1]heptan-2-yl]oxymethyl]benzoate]
≥ 80%: inhibition at 75 g/ha (Echinochloa crus-galli [1]) | inhibition at 75 g/ha (Digitaria ciliaris [12]) | inhibition at 1200 g/ha (Digitaria ciliaris [6]) | inhibition at 1200 g/ha (Echinochloa crus-galli [8])

CC(C)[C@]12C[C@@H](OCC3CCCCC3)[C@](C)(C[C@@H]1I)O2 [1-736, (1R,2S,4S,5R)-5-(cyclohexylmethoxy)-2-iodo-1-isopropyl-4-methyl-7-oxabicyclo[2.2.1]heptane]
≥ 80%: inhibition at 1200 g/ha [2] | inhibition at 1200 g/ha (Scirpus juncoides [9]) | inhibition at 1200 g/ha (Echinochloa crus-galli [3]) | inhibition at 1200 g/ha (Digitaria ciliaris [4]) | inhibition at 75 g/ha [5] | inhibition at 1200 g/ha (Digitaria ciliaris [6]) | inhibition at 75 g/ha [10] | pest or weed control at 1200 g/ha [7] | pest or weed control at 1200 g/ha (Scirpus juncoides [11]) | inhibition at 1200 g/ha (Echinochloa crus-galli [8])

CCC[C@]1(O)C[C@]2(C)O[C@@]1(C(C)C)C[C@H]2OCc1ccccc1F [1-934, (1R,2S,4S,5R)-5-[(2-fluorophenyl)methoxy]-1-isopropyl-4-methyl-2-propyl-7-oxabicyclo[2.2.1]heptan-2-ol]
≥ 80%: inhibition at 75 g/ha (Echinochloa crus-galli [1]) | inhibition at 1200 g/ha [2] | inhibition at 1200 g/ha (Digitaria ciliaris [6]) | inhibition at 1200 g/ha (Echinochloa crus-galli [8])

CC(C)[C@@]12C[C@H](OCc3ccccc3F)[C@@](C)(C[C@H]1Br)O2 [1-1028, (1R,2S,4S,5R)-5-bromo-2-[(2-fluorophenyl)methoxy]-1-methyl-4-isopropyl-7-oxabicyclo[2.2.1]heptane]
≥ 80%: inhibition at 75 g/ha (Echinochloa crus-galli [1]) | inhibition at 1200 g/ha (Digitaria ciliaris [6]) | inhibition at 1200 g/ha (Echinochloa crus-galli [8])

CC(C)[C@@]12C[C@H](OCc3ccccc3F)[C@@](C)(C[C@H]1C)O2 [1-1221, (1R,2S,4S,5R)-2-[(2-fluorophenyl)methoxy]-1,5-dimethyl-4-isopropyl-7-oxabicyclo[2.2.1]heptane]
≥ 80%: inhibition at 75 g/ha (Digitaria ciliaris [12]) | inhibition at 1200 g/ha (Digitaria ciliaris [6])

CC(C)[C@@]12C[C@H](OCc3ccccc3F)[C@@](C)(C[C@@H]1C)O2 [1-1222, (1R,2S,4S,5S)-2-[(2-fluorophenyl)methoxy]-1,5-dimethyl-4-isopropyl-7-oxabicyclo[2.2.1]heptane]
≥ 80%: inhibition at 75 g/ha (Echinochloa crus-galli [1]) | inhibition at 1200 g/ha (Echinochloa crus-galli [8])

CC(C)[C@@]12C=C[C@@](C)(O1)[C@@H](OCc1ccccc1F)C2 [3-750, (1S,4R,5S)-5-[(2-fluorophenyl)methoxy]-4-methyl-1-isopropyl-7-oxabicyclo[2.2.1]hept-2-ene]
≥ 80%: inhibition at 1200 g/ha [2] | inhibition at 1200 g/ha (Scirpus juncoides [9]) | inhibition at 1200 g/ha (Echinochloa crus-galli [3]) | inhibition at 1200 g/ha (Digitaria ciliaris [4]) | inhibition at 1200 g/ha (Digitaria ciliaris [6]) | pest or weed control at 1200 g/ha [7] | pest or weed control at 1200 g/ha (Scirpus juncoides [11]) | inhibition at 1200 g/ha (Echinochloa crus-galli [8])
